From paper PMC5908134, “Saccharomyces cerevisiae as a platform for assessing sphingolipid lipid kinase inhibitors” (PLoS ONE, 2018) come the findings set out here.

In series [1] the target is T1, human SphK1 (Homo sapiens, UniProt Q9NYA1).
T1 construct: constructed by sub-cloning DNA encoding the indicated translational open reading frames into the pYES2-FLAG-URA expression vector; expressed in transfected cells; host or cells: Saccharomyces cerevisiae CBY169 or KYA1, plasmid pGAL-HsSPHK1
The experiment in a line: yeast growth rescue assay, strain CBY169 expressing human SphK1. Type of series: cell-based. The following applies: strain CBY169 expressing human SphK1. The source says:
(§1) The plasmids pGAL-HsSPHK1, pGAL-HsSPHK2, pGAL-MmSphk1, pGAL-MmSphk1L277M, pGAL-MmSphk2, pGAL-HsCERK and pGAL-SK2_MOD used in this study were constructed by sub-cloning DNA encoding the indicated translational open reading frames into the pYES2-FLAG-URA expression vector (provided by Dr. Cungui Mao). […] Excepting human and mouse SphK2, the DNA sequences are synthetic (from GeneWiz LLC (South Plainfield, NJ)) and were optimized for expression in S. cerevisiae.
(§2) Yeast harboring plasmids were selected and maintained on synthetic complete media lacking uracil (SC-URA) with 2% glucose as the fermentable carbon source. After overnight growth at 30°C in this media, the cultures were diluted 1:100 into SC-URA media supplemented with 2% galactose and various concentrations of test inhibitor. After a further 24–48 hours incubation at 30°C, the extent of growth was assessed by measuring absorbance at 600 nm. […] Tubes were incubated in a rotating drum while plates were agitated using a plate mixer. A600 for 96-well plate cultures was determined using a Molecular Devices SpectraMax M5 plate reader. Test compounds were dissolved in DMSO at 40–50 mM and diluted into water containing 0.1% fatty acid free bovine serum albumin. In all cases, the DMSO concentration in the assay was less than 2% (v/v).

Series [2] has as its target T2, human SphK2 (Homo sapiens, UniProt Q9NRA0).
T2 construct: full length (wild type hSK2); expressed in transfected cells; host or cells: Saccharomyces cerevisiae CBY169 or KYA1, plasmid pGAL-HsSPHK2
T2 sequence (Q9NRA0 1-618 isoform Q9NRA0-2): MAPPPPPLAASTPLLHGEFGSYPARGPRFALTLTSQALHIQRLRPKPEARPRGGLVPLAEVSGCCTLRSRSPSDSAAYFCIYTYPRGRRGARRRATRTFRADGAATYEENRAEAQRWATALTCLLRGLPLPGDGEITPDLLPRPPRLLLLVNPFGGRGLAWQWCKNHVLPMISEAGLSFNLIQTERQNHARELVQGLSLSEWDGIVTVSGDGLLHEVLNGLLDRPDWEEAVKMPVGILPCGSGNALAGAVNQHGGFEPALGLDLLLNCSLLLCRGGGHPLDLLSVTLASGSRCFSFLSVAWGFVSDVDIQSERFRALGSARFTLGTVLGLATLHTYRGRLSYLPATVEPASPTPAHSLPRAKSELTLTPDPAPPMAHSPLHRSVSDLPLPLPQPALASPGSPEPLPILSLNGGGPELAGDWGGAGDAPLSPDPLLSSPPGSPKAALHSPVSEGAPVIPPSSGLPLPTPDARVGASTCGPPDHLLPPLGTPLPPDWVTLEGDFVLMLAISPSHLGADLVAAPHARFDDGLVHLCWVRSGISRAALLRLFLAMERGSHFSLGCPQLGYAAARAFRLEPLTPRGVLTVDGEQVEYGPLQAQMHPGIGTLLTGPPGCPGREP
The series is described as follows: yeast growth rescue assay, strain CBY169 expressing human SphK2. It counts as cell-based.
Source text: as §1

The target in series [3] is T1, human SphK1. The series is described as follows: yeast growth rescue assay, strain KYA1 (PDR5 deleted) expressing human SphK1. It counts as cell-based.
Source text: as §1, §2

Series [4] deals with T2, human SphK2. The series is described as follows: yeast growth rescue assay, strain KYA1 (PDR5 deleted) expressing human SphK2. Type of series: cell-based. The following applies: strain KYA1 expressing human SphK2. The source says: The yeast strains used in this study include JS1256 (MATa his3Δ1 leu2Δ0 met15Δ0 ura3Δ0) and CBY169 (MATα leu2-3,112 ura3-52 his4 trp1 rme1 dpl1Δ::TRP1 lcb3Δ::LEU2 lcb4Δ::kanMX lcb5Δ::kanMX) (the latter provided by Kyle Cunningham). The CBY169 strain was modified further by replacement of the PDR5 gene with a selectable marker (confers resistance to clonat) to generate strain KYA1 (MATα leu2-3,112 ura3-52 his4 trp1 rme1 dpl1Δ::TRP1 lcb3Δ::LEU2 lcb4Δ::kanMX lcb5Δ::kanMX pdr5Δ::natMX).
The plasmids pGAL-HsSPHK1, pGAL-HsSPHK2, pGAL-MmSphk1, pGAL-MmSphk1L277M, pGAL-MmSphk2, pGAL-HsCERK and pGAL-SK2_MOD used in this study were constructed by sub-cloning DNA encoding the indicated translational open reading frames into the pYES2-FLAG-URA expression vector (provided by Dr. Cungui Mao). The encoded proteins all have an amino terminal FLAG epitope tag ([…]) and their expression is under the control of the GAL1,10 promoter. Excepting human and mouse SphK2, the DNA sequences are synthetic (from GeneWiz LLC (South Plainfield, NJ)) and were optimized for expression in S. cerevisiae.

The test system of series [5] is yeast strain CBY169. The series is described as follows: toxicity for yeast (growth of strains without lipid kinase expression). The method, then: as §2
The salient limitations of the yeast assay are those of any cell-based assay. Namely, the assay reports EC50 values rather than Km, Vmax or kcat values of inhibitors, test compounds must not be markedly cytotoxic at the concentrations tested and compounds must accumulate to some extent in the yeast. Cytotoxicity is readily discerned by testing compounds for an effect on growth of strains without lipid kinase expression.

Series [6] deals with T3, mouse SphK2 (Mus musculus, UniProt Q9JIA7).
T3 sequence (Q9JIA7 1-617): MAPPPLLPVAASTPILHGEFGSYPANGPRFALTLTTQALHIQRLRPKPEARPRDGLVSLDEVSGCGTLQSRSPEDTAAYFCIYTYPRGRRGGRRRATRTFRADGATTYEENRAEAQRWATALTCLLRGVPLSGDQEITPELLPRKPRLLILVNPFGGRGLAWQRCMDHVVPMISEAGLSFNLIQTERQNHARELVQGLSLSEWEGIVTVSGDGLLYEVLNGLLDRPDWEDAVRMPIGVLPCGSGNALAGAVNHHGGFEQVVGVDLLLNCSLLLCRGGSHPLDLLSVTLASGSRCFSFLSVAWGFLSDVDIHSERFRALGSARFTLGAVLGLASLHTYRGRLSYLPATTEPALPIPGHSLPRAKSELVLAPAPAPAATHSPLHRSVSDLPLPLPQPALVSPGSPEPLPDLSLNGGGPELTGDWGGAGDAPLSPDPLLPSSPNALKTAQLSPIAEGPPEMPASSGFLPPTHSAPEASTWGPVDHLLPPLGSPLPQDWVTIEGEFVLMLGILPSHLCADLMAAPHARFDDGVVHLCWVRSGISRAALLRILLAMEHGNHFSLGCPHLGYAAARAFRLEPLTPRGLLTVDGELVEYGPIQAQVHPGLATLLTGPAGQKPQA
The experiment in a line: yeast growth rescue assay, mouse SphK2 (CBY169 and KYA1 strains). Type of series: cell-based. The following applies: both the CBY169 and KYA1 strains.
Source text: as §1, §2

“Also recorded” adds a separate entry of the source.

T1 sequence (Q9NYA1 whole entry): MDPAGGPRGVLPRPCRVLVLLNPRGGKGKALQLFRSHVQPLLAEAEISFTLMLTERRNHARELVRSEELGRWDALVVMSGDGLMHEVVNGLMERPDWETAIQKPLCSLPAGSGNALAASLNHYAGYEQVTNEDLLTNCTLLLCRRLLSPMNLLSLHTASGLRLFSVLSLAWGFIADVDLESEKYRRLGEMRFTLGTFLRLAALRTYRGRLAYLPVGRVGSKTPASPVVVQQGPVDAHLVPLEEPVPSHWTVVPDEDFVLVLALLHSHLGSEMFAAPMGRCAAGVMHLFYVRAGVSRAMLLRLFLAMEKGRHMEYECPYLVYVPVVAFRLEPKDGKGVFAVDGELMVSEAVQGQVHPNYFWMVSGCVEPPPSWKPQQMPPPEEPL

Consider `O=C(NCc1ccncc1)C12CC3CC(C1)CC(c1ccc(Cl)cc1)(C3)C2` [ABC294640], for which the “rescue of growth in galactose media” value in series [1] was “failed to rescue growth”. Moreover, the rescue of growth entry in series [2] was “failed to rescue growth; also recorded: failure to detect activity”; in series [3], “failed to rescue growth”; in series [4], “failed to rescue growth; also recorded: failure to detect activity”; in series [4] (concentrations up to 100 μM), “failed to rescue growth”. Moreover, the cytotoxicity for yeast result in series [5] was “not cytotoxic”. The “activity (rescue of growth)” value in series [6] is reported as “failure to detect activity”.
